By inhibition is commonly meant the share of the control response that was lost under treatment.

Here are results for three molecules from ChEMBL document CHEMBL4699591, “An efficient synthesis tetrazole and oxadiazole analogues of novel 2'-deoxy-C-nucleosides and their antitumor activity” (2020).

Holding throughout (type): functional
Assay [1] has as its system MDA-MB-231. Put plainly: Cytotoxicity against human MDA-MB-231 cells assessed as inhibition of cell growth at 10 uM incubated for 72 hrs by MTT assay relative to control.
In assay [2] the test system is MDA-MB-231. The experiment in a line: Cytotoxicity against human MDA-MB-231 cells assessed as inhibition of cell growth at 2 uM incubated for 72 hrs by MTT assay relative to control.
For a further assay, the system named is HeLa. Put plainly: Cytotoxicity against human HeLa cells assessed as inhibition of cell growth at 2 uM incubated for 72 hrs by MTT assay relative to control.
Another assay relates to SK-OV-3. The experiment in a line: Cytotoxicity against human SK-OV-3 cells assessed as inhibition of cell growth at 2 uM incubated for 72 hrs by MTT assay relative to control. Background: Tetrazolium dyes change colour on reduction, which living cells bring about.
The subject of a further assay is PANC-1. Put plainly: Cytotoxicity against human PANC-1 cells assessed as inhibition of cell growth at 2 uM incubated for 72 hrs by MTT assay relative to control.
The next assay concerns PC-3. Put plainly: Cytotoxicity against human PC-3 cells assessed as inhibition of cell growth at 2 uM incubated for 72 hrs by MTT assay relative to control.

Regarding `CC(C)c1nc([C@H]2C[C@H](O)[C@@H](CO)O2)no1`, in the assay with MDA-MB-231 [1], the inhibition at 10 µM came to 9%.
Same read-out and setting: under `Cc1nnc([C@@H]2C[C@H](O)[C@@H](CO)O2)o1` stands 9%.
Take `COc1cccc2c1C(=O)c1c(O)c3c(c(O)c1C2=O)C[C@@](O)(C(=O)CO)C[C@@H]3O[C@H]1C[C@H](N)[C@H](O)[C@H](C)O1` [DOXORUBICIN]: the inhibition at 2 µM in the assay on MDA-MB-231 [2], with HeLa, in the assay with SK-OV-3, in the assay with PANC-1 and in the assay with PC-3 was greater than 90% in each case.
